Data: patent publication US12697748B2, “Wood treatment compositions having antimicrobial properties” (Société en Commandite Prolam, priority 2022, dated 2026)

Legend:
Assay type in all cases: cell-based
[1] = test system: Escherichia coli ATCC 11229; assay: Qualitative antibacterial effect, inhibition zone after 48 h (Example 6); settings: filter (diameter 10 mm)
Procedure: Cubic pieces of Maplewood of about 1 cm of thickness with a surface of about […] were provided. For Sample Y, the pieces were heated on a heating plate at 230° C. for about 45 seconds, and dipped into the tannin solution for about 25 seconds, again heated on the heating plate for about 45 seconds and dipped in paraffin at 65° C. for about 25 seconds. For Sample X, the pieces were heated on a heating plate for about 45 seconds, and dipped into the tannin solution for about 25 seconds.
After the above impregnation, manual vaporization of the Tanac Weibull™ solution was also conducted. Samples X and Y were sprayed five times each, with 24 h between each spray.
The growth inhibition for Escherichia coli ATCC 11229 was determined. A culture of the microorganism was spread at the surface of Tryptic Soy agar (TSA) nutrient gel. Treated wood cubic pieces of about 3 mm of thickness with a surface of about 1 cm^2, as prepared above. The wooden pieces of Sample X (duplicated) were then rehumidified with water, Sample Y was not rehumidified and two Samples Z (no treated) were used: as is and rehumidified. Each piece was deposited on the nutrient gel, treated face down, contacting the gel. […] After the incubation period, the growth inhibition zone was measured and the incubation pursued at 48 h to evaluate the growth under the wooden cubes after the prolonged incubation.

[2] = test system: Staphylococcus aureus ATCC 6538; assay: Growth inhibition zone of treated wood pieces on TSA nutrient gel; settings: 24 h at 36° C.
Procedure: (§1) Cubic pieces of Maplewood of about 3 mm of thickness with a surface of about 1 cm^2 were provided. For Sample A, the pieces were heated on a heating plate at 230° C. for about 45 seconds, and dipped into the tannin solution for about 25 seconds, again heated on the heating plate for about 45 seconds and dipped in paraffin at 65° C. for about 25 seconds. For Sample B, the pieces were heated on a heating plate for about 45 seconds, and dipped into the tannin solution for about 25 seconds. The impregnation rate was calculated to be around 645 g/m^2 (60 g/pi^2).
(§2) The growth inhibition for Escherichia coli ATCC 11229 and Staphylococcus aureus ATCC 6538 was first determined. A culture of each microorganism was spread at the surface of Tryptic Soy agar (TSA) nutrient gel. Treated wood was cut into cubic pieces of about 3 mm of thickness with a surface of about 1 cm^2, as prepared above. Each piece was deposited on the nutrient gel, treated face down, contacting the gel, and using two pieces for each microorganism. The petri dishes containing the nutrient gel were closed and incubated for 24 h at 36° C. Sterile filters moistened with demineralized water and with a mercury chloride 0.018 mol/L solution were used and tested as negative and positive controls, respectively. After the incubation period, the growth inhibition zone was measured, and the incubation pursued for three (3) additional days to evaluate the growth under the wooden cubes after the prolonged incubation.
(§3) Cubic pieces of Maplewood of about 1 cm of thickness with a surface of about […] were provided. For Samples 1 and 2, the pieces were heated on a heating plate at 230° C. for about 45 seconds, and dipped into the tannin solution for about 25 seconds, again heated on the heating plate for about 45 seconds and dipped in paraffin at 65° C. for about 25 seconds. For Samples 4 and 5, the pieces were heated on a heating plate for about 45 seconds, and dipped into the tannin solution for about 25 seconds. The impregnation rate was calculated to be around 301 g/m^2 (28 g/pi^2). […]

[3] = test system: Escherichia coli ATCC 11229; assay: as above; settings: 24 h at 36° C., listed as Negative control
Procedure: as §1, §2, §3

[Cl][Hg][Cl] [Positive control, mercury chloride]
Diameter of the inhibition zone after 48 h [1]: 22 mm | Diameter of the inhibition zone [2]: 32 mm | Diameter of the inhibition zone ([2]; listed as Negative control): 25 mm | Diameter of the inhibition zone [3]: 23 mm
